Measured values taken from ChEMBL document CHEMBL1150236, “Dragonamides C and D, linear lipopeptides from the marine cyanobacterium brown Lyngbya polychroa” (2008).
Square brackets hold non-standard residues; d marks the D form. Peptide text beside a SMILES is read from it. * marks the point of attachment. NMeV = CN[C@H](C(=O)O)C(C)C; X1 = C#CCCC/C(=C\C(=O)*)OC; X2 = C#CCCCC(=O)CC(=O)*

Experiments:
Assay type in all cases: functional
[1] = tested on: HT-29; assay: Cytotoxicity against human HT29 cells after 48 hrs by MTT assay; conditions: HT-29, 48 h
[2] = tested on: U2OS; assay: Cytotoxicity against human U2OS cells after 48 hrs by MTT assay
[3] = tested on: IMR-32; assay: Cytotoxicity against human IMR32 cells after 48 hrs by MTT assay; conditions: IMR-32, 48 h

SMILES	GI50 [1] [µM]	GI50 [2] [µM]	GI50 [3] [µM]
C#CCCC/C(=C\C(=O)N(C)[C@H](C(=O)N(C)[C@H](C(=O)N(C)[C@H](C(=O)N(C)[C@H](C(N)=O)C(C)C)C(C)C)C(C)C)C(C)C)OC [DRAGONAMIDE C] (X1-[NMeV][NMeV][NMeV][NMeV]-NH2)	22	56	49
C#CCCCC(=O)CC(=O)N(C)[C@H](C(=O)N(C)[C@H](C(=O)N(C)[C@H](C(=O)N(C)[C@H](C(N)=O)C(C)C)C(C)C)C(C)C)C(C)C [DRAGONAMIDE D] (X2-[NMeV][NMeV][NMeV][NMeV]-NH2)	32	59	51
